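Assay format: 96-well plates, 48-hour exposure. GI50: concentration for 50% inhibition of growth. The concentration for full growth arrest is given as TGI.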
Assays:
Experiment in all cases: inhibition of tumour cell growth, NCI panel, 48 h
[1] = test system: MDA-MB-435
[2] = test system: OVCAR-5 ovarian
[3] = test system: SF-268 CNS
[4] = test system: A498 renal
[5] = test system: COLO 205 colon
[6] = test system: SK-MEL-5 melanoma
[7] = test system: NCI-H522 lung
[8] = test system: SK-MEL-28 melanoma
[9] = test system: DU-145 prostate
[10] = test system: HCC-2998 colon
[11] = test system: SK-OV-3 ovarian
[12] = test system: M14 melanoma
[13] = test system: EKVX NSCLC
[14] = test system: LOX IMVI melanoma
[15] = test system: HL-60(TB) leukemia
[16] = test system: UACC-62 melanoma
[17] = test system: MDA-MB-231 breast
[18] = test system: NCI-H460 lung
[19] = test system: BT-549 breast
[20] = test system: SF-295 CNS
[21] = test system: MALME-3M melanoma
[22] = test system: RPMI-8226 leukemia
[23] = test system: HT29 colon
[24] = test system: SK-MEL-2 melanoma
[25] = test system: PC-3 prostate
[26] = test system: UACC-257 melanoma
[27] = test system: TK-10 renal
[28] = test system: NCI/ADR-RES ovarian
[29] = test system: UO-31 renal
[30] = test system: SW-620 colon
[31] = test system: SF-539 CNS
[32] = test system: K-562 leukemia
[33] = test system: CCRF-CEM leukemia
[34] = test system: CAKI-1 renal
[35] = test system: NCI-H23 lung
[36] = test system: RXF 393 renal
[37] = test system: NCI-H226 lung
[38] = test system: HOP-92 NSCLC
[39] = test system: KM12 colon
[40] = test system: OVCAR-8 ovarian
[41] = test system: MOLT-4 leukemia
[42] = test system: HOP-62 NSCLC
[43] = test system: OVCAR-4 ovarian
[44] = test system: OVCAR-3 ovarian
[45] = test system: ACHN renal
[46] = test system: MCF7 breast
[47] = test system: MDA-MB-468 breast
[48] = test system: SNB-19 CNS
[49] = test system: HCT-15 colon
[50] = test system: SN12C renal
[51] = test system: IGROV1 ovarian
[52] = test system: A549 NSCLC

`COc1cccc(COc2ccc(/C=C3\Oc4cc(O)ccc4C3=O)cc2)c1` was tested, and the GI50 [1] was over 100 µM, the TGI [1] was over 100 µM and the GI50 [2] was over 100 µM. For the same molecule, the TGI [2] was over 100 µM, the GI50 [3] was over 100 µM and the TGI [3] was over 100 µM. For the same molecule, the GI50 [4] was over 100 µM, the TGI [4] was over 100 µM and the GI50 [5] was over 100 µM. For the same molecule, the TGI [5] was over 100 µM, the GI50 [6] was over 100 µM and the TGI [6] was over 100 µM. The GI50 [7] was over 100 µM, the TGI [7] was over 100 µM and the GI50 [8] was over 100 µM. The TGI [8] was over 100 µM, the GI50 [9] was over 100 µM and the TGI [9] was over 100 µM. The GI50 [10] was over 100 µM, the TGI [10] was over 100 µM and the GI50 [11] was over 100 µM. It also gave a TGI [11] of over 100 µM, a GI50 [12] of over 100 µM and a TGI [12] of over 100 µM. The GI50 [13] was over 100 µM, the TGI [13] was over 100 µM and the GI50 [14] was over 100 µM. It also gave a TGI [14] of over 100 µM, a GI50 [15] of over 100 µM and a TGI [15] of over 100 µM. It also gave a GI50 [16] of over 100 µM, a TGI [16] of over 100 µM and a GI50 [17] of over 100 µM. It also gave a TGI [17] of over 100 µM, a GI50 [18] of over 100 µM and a TGI [18] of over 100 µM. It also gave a GI50 [19] of over 100 µM, a TGI [19] of over 100 µM and a GI50 [20] of over 100 µM. For the same molecule, the TGI [20] was over 100 µM, the GI50 [21] was over 100 µM and the TGI [21] was over 100 µM. For the same molecule, the GI50 [22] was over 100 µM, the TGI [22] was over 100 µM and the GI50 [23] was over 100 µM. It also gave a TGI [23] of over 100 µM, a GI50 [24] of over 100 µM and a TGI [24] of over 100 µM. The GI50 [25] was over 100 µM, the TGI [25] was over 100 µM and the GI50 [26] was over 100 µM. For the same molecule, the TGI [26] was over 100 µM, the GI50 [27] was over 100 µM and the TGI [27] was over 100 µM. For the same molecule, the GI50 [28] was over 100 µM, the TGI [28] was over 100 µM and the GI50 [29] was over 100 µM. The TGI [29] was over 100 µM, the GI50 [30] was 23.1 µM and the TGI [30] was over 100 µM. For the same molecule, the GI50 [31] was 23.4 µM, the TGI [31] was over 100 µM and the GI50 [32] was over 100 µM. The TGI [32] was over 100 µM, the GI50 [33] was over 100 µM and the TGI [33] was over 100 µM. For the same molecule, the GI50 [34] was 85.2 µM, the TGI [34] was over 100 µM and the GI50 [35] was over 100 µM. It also gave a TGI [35] of over 100 µM, a GI50 [36] of over 100 µM and a TGI [36] of over 100 µM. It also gave a GI50 [37] of over 100 µM, a TGI [37] of over 100 µM and a GI50 [38] of 2.62 µM. The TGI [38] was over 100 µM, the GI50 [39] was over 100 µM and the TGI [39] was over 100 µM. It also gave a GI50 [40] of over 100 µM, a TGI [40] of over 100 µM and a GI50 [41] of over 100 µM. The TGI [41] was over 100 µM, the GI50 [42] was over 100 µM and the TGI [42] was over 100 µM. It also gave a GI50 [43] of 2.94 µM, a TGI [43] of 10.6 µM and a GI50 [44] of over 100 µM. For the same molecule, the TGI [44] was over 100 µM, the GI50 [45] was 4.97 µM and the TGI [45] was over 100 µM. The GI50 [46] was over 100 µM, the TGI [46] was over 100 µM and the GI50 [47] was 42.5 µM. For the same molecule, the TGI [47] was over 100 µM, the GI50 [48] was over 100 µM and the TGI [48] was over 100 µM. The GI50 [49] was over 100 µM, the TGI [49] was over 100 µM and the GI50 [50] was over 100 µM. For the same molecule, the TGI [50] was over 100 µM, the GI50 [51] was over 100 µM and the TGI [51] was over 100 µM. The GI50 [52] was over 100 µM and the TGI [52] was over 100 µM.

Reference: PubChem BioAssay (NCI)
